Experimental data from paper PMC4150253 (ChemMedChem, 2014).

Tests used:
Type in all cases: biochemical
FL-Tip60 (1-512 aa) = FL-Tip60 (1-512 aa) (Homo sapiens, UniProt Q92993); experiment: Radiometric filter binding HAT assay, full-length Tip60
CAT-Tip60 (221-512 aa) = CAT-Tip60 (221-512 aa) (Homo sapiens, UniProt Q92993); experiment: Radiometric filter binding HAT assay, Tip60 catalytic domain
[1] = biological target: PCAF HAT domain (493-658) (Homo sapiens, UniProt Q92831); experiment: Radiometric HAT assay, PCAF HAT domain
Sequence of PCAF HAT domain (493-658) (Q92831 493-658): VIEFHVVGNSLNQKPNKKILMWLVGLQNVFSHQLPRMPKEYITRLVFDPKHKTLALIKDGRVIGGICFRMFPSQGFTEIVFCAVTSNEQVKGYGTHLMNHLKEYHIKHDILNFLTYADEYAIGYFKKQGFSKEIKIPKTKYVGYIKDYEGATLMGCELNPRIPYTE

Sequence of FL-Tip60 (1-512 aa) (Q92993 1-512): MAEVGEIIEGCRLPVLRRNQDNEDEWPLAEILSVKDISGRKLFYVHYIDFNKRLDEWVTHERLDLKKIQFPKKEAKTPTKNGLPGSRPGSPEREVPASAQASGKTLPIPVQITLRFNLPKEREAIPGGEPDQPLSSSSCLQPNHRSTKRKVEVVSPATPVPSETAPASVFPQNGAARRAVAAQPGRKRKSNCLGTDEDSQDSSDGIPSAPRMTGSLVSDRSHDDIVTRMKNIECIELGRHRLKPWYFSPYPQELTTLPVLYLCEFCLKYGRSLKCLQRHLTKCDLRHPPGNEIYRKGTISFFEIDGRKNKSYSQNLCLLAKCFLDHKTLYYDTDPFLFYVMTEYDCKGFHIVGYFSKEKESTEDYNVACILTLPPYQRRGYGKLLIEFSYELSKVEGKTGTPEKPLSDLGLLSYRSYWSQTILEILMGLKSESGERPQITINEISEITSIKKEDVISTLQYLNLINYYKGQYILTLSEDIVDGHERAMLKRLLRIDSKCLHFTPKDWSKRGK
Sequence of CAT-Tip60 (221-512 aa) (Q92993 221-512): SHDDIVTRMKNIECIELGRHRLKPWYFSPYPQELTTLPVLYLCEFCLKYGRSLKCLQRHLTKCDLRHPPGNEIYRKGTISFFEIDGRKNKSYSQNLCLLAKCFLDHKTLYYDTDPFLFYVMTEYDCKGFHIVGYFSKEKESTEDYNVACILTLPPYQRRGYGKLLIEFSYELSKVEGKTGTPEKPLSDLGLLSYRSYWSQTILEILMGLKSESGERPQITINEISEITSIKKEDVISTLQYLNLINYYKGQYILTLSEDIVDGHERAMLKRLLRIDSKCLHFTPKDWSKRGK

IC50 (FL-Tip60 (1-512 aa)): 9.1 ± 1 µM
IC50 (CAT-Tip60 (221-512 aa)): 16 ± 3.1 µM
IC50 [1]: 8.4 ± 0.4 µM
SMILES: CC(C)(COP(=O)(O)OP(=O)(O)OC[C@H]1O[C@@H](n2cnc3c(N)ncnc32)[C@H](O)[C@@H]1OP(=O)(O)O)[C@@H](O)C(=O)NCCC(=O)NCCS [CoASH]
